As a reminder, the IC50 is the concentration that inhibits the measured activity by half. A higher IC50 goes with weaker potency in that assay.

Structures are written as SMILES.

One experiment concerns the target h-AC (Acid Ceramidase) (Homo sapiens (Human), UniProt Q13510). Put plainly: Fluorogenic h-AC assay. It is filed as biochemical. The following applies: pH 4.5, 10 min pre-incubation. How it is done: (§1) Human recombinant proteins were obtained from HEK-293 stable overexpressing NAAA, AC and FAAH cell lines, respectively. Cells were grown in Dulbecco's modified Eagle medium (DMEM) containing 10% FBS, 1% penicillin/streptomycin, 1% glutamine and 500 μg/mL G418. To obtain membrane preparation cells were scraped off with cold phosphate-buffered saline (PBS) and collected by centrifugation (300×g, 7 min, 4° C.). Cell pellets were stored at −80° C. until protein preparation.
(§2) Preparation of enzyme-enriched lysate (h-NAAA and hAC). HEK-293 cells stably transfected with the human NAAA or human AC coding sequences were used as enzyme source. […] The suspension was finally ultracentrifuged at 105,000×g for 1 h at 4° C., supernatants were collected, protein concentration was measured and samples aliquoted and stored at −80° C. until use.
The assay was run in 96-well microplates (Black OptiPlate™-96 F; PerkinElmer, Massachusetts, USA) in a total reaction volume of 100 μL. h-AC protein preparation (2.0 μg) was pre-incubated for 10 min with various concentrations of test compounds or vehicle control (DMSO 5%) in 25 mM sodium acetate buffer (pH 4.5). […] Fluorescence was measured with EnVision 2014 Multilabel Reader (PerkinElmer, Massachusetts, USA) using an excitation wavelength of 355 nm and emission 460 nm. […]

Experiment [1] has as its target T1, h-NAAA (Homo sapiens (Human), UniProt Q02083). Put plainly: Competitive Activity Based Protein Profiling (ABPP). It is filed as biochemical. The following applies: 20 μM, lysosomal extracts of h-NAAA overexpressing HEK293 cells, probe ARN14686. Here is the method: FIG. 1 is a picture showing the SDS-PAGE analysis resulting from the Competitive Activity Based Protein Profiling (ABPP): in summary, lysosomal extracts of h-NAAA overexpressing HEK293 cells were incubated with a vehicle (2% DMSO), ARN15393 (covalent h-NAAA inhibitor) or ARN16186, for 2 h before addition of probe ARN14686; a rhodamine fluorophore was inserted by a click chemistry. The arrow indicates NAAA;
(§3) h-NAAA was produced and purified from h-NAAA overexpressing HEK293 cell line as described (ACS Med Chem Lett 2012, 3, 422-426). The purified enzyme was incubated in activation buffer [100 mM Sodium Phosphate/Sodium Citrate Buffer, 3 mM DL-dithiothreitol (DTT), 0.1% Triton X100, pH 4.5] for 3 h at 37° C. and the enzyme activation was checked by SDS-PAGE and Coomassie blue staining.
For competitive ABPP, 50 μL of lysosomal enrichment (0.5 mg/mL) from of h-NAAA-overexpressing HEK293 cell line were incubated 2 h at 37° C. with ARN16186 or covalent inhibitor ARN15393^(*^) at a final concentration of 20 μM (DMSO 2%). At the end of this pre-incubation time, the activity based probe undec-10-ynyl-N—[(S)-2-oxoazetidin-3-yl]carbamate (ARN14686) (ACS Chem. Biol. 2015, 10, 2057-2064) was added at 20 μM for 15 min or for 3.5 h at 37° C. […] Samples (10 μL) were analysed by SDS-PAGE and gel florescence was scanned at 532 nm wavelength (Fuji Film FLA-9000 instrument).
Target sequence in this assay (Q02083 29-359): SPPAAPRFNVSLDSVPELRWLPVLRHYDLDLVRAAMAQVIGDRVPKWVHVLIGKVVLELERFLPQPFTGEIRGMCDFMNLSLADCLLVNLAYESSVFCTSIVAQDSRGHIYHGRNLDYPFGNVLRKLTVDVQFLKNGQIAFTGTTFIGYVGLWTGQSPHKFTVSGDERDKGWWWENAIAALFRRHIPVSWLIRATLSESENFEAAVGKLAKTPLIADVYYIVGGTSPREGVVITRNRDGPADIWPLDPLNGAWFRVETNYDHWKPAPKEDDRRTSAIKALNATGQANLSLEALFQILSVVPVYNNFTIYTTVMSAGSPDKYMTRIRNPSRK

For experiment [2], the target named is T1, h-NAAA. Put plainly: Dialysis test (reversibility of inhibition). Type of experiment: biochemical.
Target sequence in this assay (Q02083 29-359): as above
The target of experiment [3] is T1, h-NAAA. Put plainly: Inhibitors recovery assay (LC/MS). Type of experiment: biochemical. The settings on record: LC/MS recovery study, 1 μM compound, 2 h at 37° C. with h-NAAA. How it is done: FIG. 2 is a histogram resulting from the inhibitors recovering assay: ordinate: % recovery of compounds after h-NAAA incubation; ARN16186 and covalent inhibitor ARN15393 were incubated with NAAA (right bars) or buffer alone (left bars) and quantified in supernatant after protein precipitation;
as §3
Target sequence in this assay (Q02083 29-125): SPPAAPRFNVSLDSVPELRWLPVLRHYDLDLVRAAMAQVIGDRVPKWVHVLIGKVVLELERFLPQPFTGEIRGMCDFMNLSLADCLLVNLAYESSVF
Target sequence in this assay (Q02083 126-359): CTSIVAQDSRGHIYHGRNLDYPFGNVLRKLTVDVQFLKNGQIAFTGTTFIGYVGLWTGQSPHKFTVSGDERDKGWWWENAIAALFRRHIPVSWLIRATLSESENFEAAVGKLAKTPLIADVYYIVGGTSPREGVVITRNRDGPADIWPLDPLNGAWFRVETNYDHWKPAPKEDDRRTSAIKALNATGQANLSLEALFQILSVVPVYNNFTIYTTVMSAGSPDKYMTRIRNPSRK
h-NAAA (25 μL of a 2 μM solution) was incubated with ARN16186 or covalent inhibitor ARN15393 at the concentration of 1 μM in activation buffer, 2 h at 37° C. Samples were next precipitated with ten volumes of acetonitrile and centrifuged 10 min at 12000×g. The supernatants were recovered and analysed by LCMS/MS for the presence of the added compound. No-protein control samples (buffer only) were used as 100% recovery reference. Compound was detected and quantified using a Waters ACQUITY UPLC/MS TQD system consisting of a TQD (Triple Quadrupole Detector) mass spectrometer, equipped with an electrospray ionization interface. […] Compound was quantified monitoring its MRM peak area. […]

The subject of experiment [4] is sciatic nerve chronic constriction injury (CCI) model of persistent hyperalgesia and allodynia. Put plainly: Chronic Constriction Injury (CCI) of the sciatic nerve. The following applies: mice. It is filed as in vivo. How it is done:
Sciatic nerve ligations were performed according to Bennett and Xie (Pain. 1988, 33, 87-107). Adult male CD1 mice were anesthetized with 2-3% isoflurane, and the left sciatic nerve was exposed at mid-thigh level through a small incision and tied at two distinct sites (spaced at a 2-mm interval) with a silk thread. The wound was closed with a single muscle suture and skin clips, and dusted with streptomycin. In sham-operated animals, the nerve was exposed but not tied. All experiments were performed in a quiet room, and experimenters were blinded to the treatment protocol at the time of the test.
Heat hyperalgesia was assessed by the method of Hargreaves et al. (Pain. 1988, 32, 77-88) measuring the latency to withdraw the hind paw from a focused beam of radiant heat (thermal intensity: infrared 3.0) applied to the plantar surface in a plantar test apparatus (Ugo Basile). The cutoff time was set at 30 s.
Tactile allodynia (dynamic plantar esthesiometer; Ugo Basile) was assessed as described by La Rana et al. (Neuropharmacology 2008, 54,521-529) using the Von Frey dynamic plantar aesthesiometer (DPA). Animals were placed individually in a small testing arena (20 cm×18.5 cm×13 cm) with a wire mesh floor for 5 min. The DPA device was positioned beneath the animal, so that the filament was directly under the plantar surface of the paw to be tested. […] The DPA automatically records the force at which the paw is withdrawn and the withdrawal latency (latency and maximum force are directly related, because the device progressively increases force until withdrawal occurs). Mechanical hyperalgesia was recorded according to the Randall Sellito measurement.
ARN16186 was then studied for its ability to alleviate established chronic pain condition (therapeutic effect). The compound was tested in the sciatic nerve chronic constriction injury (CCI) model of persistent hyperalgesia and allodynia in mice, a model that has both inflammatory and neuropathic pain components. ARN16186 (0.3, 1.0, 3.0 and 10 mg kg^−1, p.o.) was administered on day 7 and day 14, after left sciatic nerve ligation, and pain readouts were measured 2 h after dosing.

Experiment [5] has as its target h-FAAH1 (Fatty Acid Amide Hydrolase) (Homo sapiens (Human), UniProt O00519). In words: Fluorogenic h-FAAH assay. Type of experiment: biochemical. The settings on record: AMC arachidonoyl amide 800 nM, pH 7.4, 50 min pre-incubation. Here is the method:
as §1
Preparation of membrane-enriched lysate (h-FAAH). […]
The fluorescent assay to measure FAAH activity was performed in 96 wells black plates: 2.5 μg of human FAAH-1 membrane preparation were pre-incubated for 50 min at 37° C., in 190 μL of assay buffer (50 mM TrisHCl pH 7.4, 0.05% Fatty acid-free BSA) with 5 μL of inhibitor or 5 μL DMSO to measure FAAH total activity. […] The reaction was carried out for 45 minutes at 37° C. and fluorescence was measured with EnVision 2014 Multilabel Reader (PerkinElmer, Massachusetts, USA) (excitation wavelength 355 nm/emission wavelength 460 nm). The concentration causing half-maximal inhibition (IC50) was determined by nonlinear regression analysis of the Log [concentration]/response curves generated with mean replicate values using a four-parameter Hill equation curve fitting with GraphPad Prism 5 (GraphPad Software Inc., CA, USA).

The target of experiment [6] is T1, h-NAAA. Put plainly: Fluorogenic h-NAAA assay. The following applies: PAMCA substrate 2.0 μM, pH 4.5, 30 min pre-incubation. It is filed as biochemical. How it is done:
as §1, §2
Target sequence in this assay (Q02083 29-359): as the sequence (Q02083 29-359) above
The assay was run in 96-well microplates (Black OptiPlate™-96 F; PerkinElmer, Massachusetts, USA), in a total reaction volume of 200 μL. h-NAAA protein preparation (4.0 μg) was pre-incubated for 30 min with various concentrations of test compounds or vehicle control (DMSO 5%) in 100 mM citrate/phosphate buffer (pH 4.5) containing 3.0 mM DTT, 0.1% NP40 0.1%, 0.05% BSA, 150 mM NaCl. […] Fluorescence was measured with EnVision 2014 Multilabel Reader (PerkinElmer, Massachusetts, USA) using an excitation wavelength of 355 nm and emission 460 nm. […]

Where [7] appears, read: single administration 0.3, 1.0, 3.0 and 10 mg kg^−1 p.o., day 7 and day 14 after ligation, 2 h after dosing, dose-dependent.

Chain of h-AC (Acid Ceramidase) (Q13510 22-395): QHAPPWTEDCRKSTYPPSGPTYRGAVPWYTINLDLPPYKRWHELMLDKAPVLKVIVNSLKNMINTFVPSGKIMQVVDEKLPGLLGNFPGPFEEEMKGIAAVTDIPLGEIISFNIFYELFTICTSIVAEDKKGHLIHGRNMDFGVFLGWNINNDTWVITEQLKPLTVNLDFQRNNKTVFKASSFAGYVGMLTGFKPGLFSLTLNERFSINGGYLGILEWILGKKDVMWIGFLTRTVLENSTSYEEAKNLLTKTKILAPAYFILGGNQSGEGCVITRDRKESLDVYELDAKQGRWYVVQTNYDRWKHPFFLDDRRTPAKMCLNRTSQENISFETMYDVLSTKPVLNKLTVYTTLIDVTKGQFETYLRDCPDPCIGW
Chain of h-FAAH1 (Fatty Acid Amide Hydrolase) (O00519 whole entry): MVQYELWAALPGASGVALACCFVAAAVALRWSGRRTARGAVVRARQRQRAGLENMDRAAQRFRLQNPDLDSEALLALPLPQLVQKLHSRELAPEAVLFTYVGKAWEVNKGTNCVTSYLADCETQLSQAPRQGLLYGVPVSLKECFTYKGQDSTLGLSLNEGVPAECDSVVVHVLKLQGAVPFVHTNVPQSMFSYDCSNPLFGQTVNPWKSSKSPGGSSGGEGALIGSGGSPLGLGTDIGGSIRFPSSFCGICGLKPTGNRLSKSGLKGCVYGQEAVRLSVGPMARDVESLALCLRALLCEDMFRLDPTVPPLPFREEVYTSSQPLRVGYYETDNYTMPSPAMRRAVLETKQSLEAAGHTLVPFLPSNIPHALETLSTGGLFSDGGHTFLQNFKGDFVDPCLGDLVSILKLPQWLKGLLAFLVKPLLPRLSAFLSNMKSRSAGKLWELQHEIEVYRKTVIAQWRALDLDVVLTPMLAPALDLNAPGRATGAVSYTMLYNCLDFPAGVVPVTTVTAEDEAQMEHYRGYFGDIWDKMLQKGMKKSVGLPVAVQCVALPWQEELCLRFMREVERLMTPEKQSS

In the case of `CCCCc1ccc(OC2CC3CCC(C2)N3S(=O)(=O)c2c(C)n[nH]c2C)cc1` (stereo not drawn) [ARN16186, (endo)-3-(4-butylphenoxy)-8-[(3,5-dimethyl-1H-pyrazol-4-yl)sulfonyl]-8-azabicyclo[3.2.1.]octane], the IC50 is > 30 µM against h-AC (Acid Ceramidase), > 30 µM in experiment [5] and 0.023 ± 0.004 µM on h-NAAA [6]. The mechanism of inhibition result at h-NAAA [1] and at h-NAAA [3] was “non-covalent” throughout. Besides, the “recovery in a dialysis test” value on h-NAAA [2] (after 24 h) is reported as “ca. 30%”. Further, the “mode of inhibition (dialysis test)” value at h-NAAA [2] (after 24 h dialysis) is given as “partially reversible”. In addition, the “dose with full effect on hyperalgesia and allodynia” value in experiment [4] (p.o., single administration, readout 2 h after dosing) stood at 10 mg/kg. In experiment [4] (setting [7]), the mechanical hyperalgesia entry is reported as “reduce significantly”. Moreover, in experiment [4] (setting [7]), the tactile allodynia entry is listed as “reduce significantly”. In experiment [4] (setting [7]), the thermal hyperalgesia result is “reduce significantly”.

The record behind these values is patent publication US10364242B2, “Modulation of N-acylethanolamine-hydrolysing acid amidase (NAAA) for disease treatment” (FONDAZIONE ISTITUTO ITALIANO DI TECNOLOGIA, priority 2017, dated 2019).
